Literature values as cited in patent US4410715A, “Process for the epoxidation of olefins using a group V metal co-catalyst I and a phenolic hydrocarbon co-catalyst II” (Exxon Research & Engineering Co., priority 1982, dated 1983).

Conditions: for pKa: aqueous solution at 25° C.

| SMILES | basicity (footnote to pKa column, in words) (in place of a pKa value) | pKa |
| --- | --- | --- |
| C1COCCO1 [1,4-dioxane, reference compound] | basic |  |
| Oc1ccc(Cl)cc1Cl [2,4-DCP, 2,4-dichlorophenol] |  | 7.7 |
| CC(C)(C)c1ccc(O)c(C(C)(C)C)c1 [2,4-di-t-butyl phenol] |  | 11.6 |
| Oc1c(Cl)cccc1Cl [2,6-DCP, 2,6-dichlorophenol] |  | 6.8 |
| COc1ccccc1O [2-methoxy-phenol, 2-methoxyphenol] |  | 10.0 |
| Oc1cccc(Cl)c1 [m-chlorophenol] |  | 8.8 |
| Oc1ccccc1Cl [o-chlorophenol] |  | 8.5 |
| Oc1ccc(Cl)cc1 [p-chlorophenol] |  | 9.2 |
| Cc1ccc(O)cc1 [p-cresol] |  | 10.2 |
